Literature values in patent US8211842B2, “Preventive and/or curative agent for cleaning materials that are brought into contact with water” (priority 2006, dated 2012).

Key:
Details in all cases: standard AFNOR NF T 72-151
Escherichia coli 54127 = test system: Escherichia coli 54127
[1] = test system: Pseudomonas aeruginosa A22
[2] = test system: Staphylococcus aureus 53164
[3] = test system: Streptococcus faecalis 5855
[4] = test system: Mycobactenum smegmatis 7326

Measured: dose effective as a bactericide

CCCCCCCCCC[N+](C)(C)CCCCCCCCCC.[Cl-] [didecyl dimethylammonium chloride]
50 ppm: Escherichia coli 54127 | [1] | [2] | [3] | [4]
